From PMC6282036, “Dual-Specificity Phosphatase CDC25B Was Inhibited by Natural Product HB-21 Through Covalently Binding to the Active Site” (Frontiers in Chemistry, 2018)

How the values were obtained:
[1] = molecular target: T1, Cdc25B (Homo sapiens, UniProt P30305); experiment: OMFP fluorometric phosphatase assay (CycLex Cdc25B kit), positive control; type: biochemical
T1 construct: recombinant human Cdc25B
T1 sequence (P30305 1-580): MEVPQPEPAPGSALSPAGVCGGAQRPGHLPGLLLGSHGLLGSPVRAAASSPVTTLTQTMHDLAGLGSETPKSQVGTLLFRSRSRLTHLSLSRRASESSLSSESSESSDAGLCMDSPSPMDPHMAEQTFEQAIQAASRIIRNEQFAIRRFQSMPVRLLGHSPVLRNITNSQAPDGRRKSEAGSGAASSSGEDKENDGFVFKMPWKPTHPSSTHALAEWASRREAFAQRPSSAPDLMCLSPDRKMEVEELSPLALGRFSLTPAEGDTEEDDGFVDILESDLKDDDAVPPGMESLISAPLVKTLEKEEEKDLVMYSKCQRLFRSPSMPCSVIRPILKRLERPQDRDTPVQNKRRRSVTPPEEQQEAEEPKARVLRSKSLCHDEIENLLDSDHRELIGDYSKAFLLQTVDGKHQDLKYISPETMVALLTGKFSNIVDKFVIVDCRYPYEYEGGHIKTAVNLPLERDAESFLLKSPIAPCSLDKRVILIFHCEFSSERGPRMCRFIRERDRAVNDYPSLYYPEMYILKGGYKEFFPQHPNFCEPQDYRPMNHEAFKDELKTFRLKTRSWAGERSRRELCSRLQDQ

[2] = molecular target: T2, Cdc25B (Homo sapiens, UniProt P30305); experiment: intact protein ESI-Q-TOF MS of covalent adducts; IC50 from OMFP fluorometric assay with recombinant Cdc25B; type: biochemical
T2 construct: Cdc25B catalytic domain (372–551)
T2 sequence (P30305 386-565): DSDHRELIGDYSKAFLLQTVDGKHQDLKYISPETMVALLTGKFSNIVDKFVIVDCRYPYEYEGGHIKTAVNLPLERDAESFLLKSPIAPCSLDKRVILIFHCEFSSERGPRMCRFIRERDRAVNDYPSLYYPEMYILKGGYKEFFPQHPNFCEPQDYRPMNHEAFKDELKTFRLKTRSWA

IC50 [1] [µM]	IC50 [2] [µM]	SMILES
5.37 ± 0.45		CNC1=CC(=O)c2ccncc2C1=O [Caulibugulone A]
	24.8 ± 1.63	C=C1C(=O)O[C@@H]2C[C@H](C)C(CCC(C)=O)=C[C@H](O)[C@H]12 [HB-21]
